Test results: publication PMC11597879, “In Silico and In Vitro Investigation of Cytotoxicity and Apoptosis of Acridine/Sulfonamide Hybrids Targeting Topoisomerases I and II” (Pharmaceuticals, 2024)

What was measured:
Topo-I = molecular target: T1, Topo-I (Homo sapiens, UniProt P11387); test: Topoisomerase I inhibitory assay (supercoiled DNA, gel electrophoresis); format: biochemical; conditions: supercoiled DNA substrate, 37 °C 30 min
T1 construct: purchased TopoGEN, Inc. (Columbus, OH, USA) TG1018-1A
T1 sequence (P11387 1-765): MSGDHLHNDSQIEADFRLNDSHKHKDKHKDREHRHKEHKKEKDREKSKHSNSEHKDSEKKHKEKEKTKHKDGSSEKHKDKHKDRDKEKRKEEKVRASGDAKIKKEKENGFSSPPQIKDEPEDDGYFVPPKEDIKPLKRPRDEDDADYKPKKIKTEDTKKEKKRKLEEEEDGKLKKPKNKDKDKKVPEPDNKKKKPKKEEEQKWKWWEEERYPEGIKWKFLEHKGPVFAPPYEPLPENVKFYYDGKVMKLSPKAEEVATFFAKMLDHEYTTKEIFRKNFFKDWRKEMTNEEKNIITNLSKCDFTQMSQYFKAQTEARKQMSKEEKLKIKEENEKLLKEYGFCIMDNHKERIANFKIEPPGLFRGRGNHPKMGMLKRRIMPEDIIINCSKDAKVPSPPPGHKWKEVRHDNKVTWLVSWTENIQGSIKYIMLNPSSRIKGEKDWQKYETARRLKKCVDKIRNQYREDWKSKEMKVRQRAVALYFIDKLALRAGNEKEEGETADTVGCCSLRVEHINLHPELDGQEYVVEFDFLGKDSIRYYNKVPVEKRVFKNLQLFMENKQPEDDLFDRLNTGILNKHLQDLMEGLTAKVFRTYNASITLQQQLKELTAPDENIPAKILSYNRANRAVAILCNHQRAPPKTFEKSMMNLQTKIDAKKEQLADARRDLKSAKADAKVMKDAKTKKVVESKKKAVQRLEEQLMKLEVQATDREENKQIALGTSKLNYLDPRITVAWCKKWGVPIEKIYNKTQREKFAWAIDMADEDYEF
From the text: (§1) Subsequently, these compounds were employed to evaluate their capacity to inhibit topoisomerase activity at the established IC50, using supercoiled DNA as a substrate. The resulting DNA products were separated via 1% gel electrophoresis and stained with ethidium bromide. […] To evaluate the catalytic activity of Topo-I, supercoiled DNA served as the substrate. Commercial samples of Topo I and supercoiled DNA were provided by […], TopoGEN, Inc. (Columbus, OH, USA).
To visualize the cleavage products after incubation, we used 1% agarose gel electrophoresis to separate the samples.

human Topo-II = molecular target: T2, human Topo-II (Homo sapiens, UniProt P11388); test: Topoisomerase II inhibitory assay (supercoiled pHot1 DNA, gel electrophoresis); format: biochemical; conditions: 37 °C 30 min
T2 construct: purchased TopoGEN TG1009
From the text: as §1
To assess the Topo-II activity, a typical enzyme reaction was set up using human Topo-II, supercoiled pHot1 DNA as the substrate, the test drug, and the assay buffer. […] Following that, the DNA was stained and ran on a 1% agarose gel for one to two hours using a Bio-Rad gel electrophoresis apparatus. Both supercoiled and linear DNA strands were included in the gel to serve as indicators for DNA-Topo-II intercalation.

HepG2 cells [1] = system: HepG2 cells; design: method as in earlier work; conditions: MTT, 48 h exposure; read-out: IC50 HepG-2; cited from earlier work
HCT-116 cells = system: HCT-116 cells; design: method as in earlier work; conditions: MTT, 48 h exposure; cited from earlier work
MCF-7 cells = system: MCF-7 cells; design: method as in earlier work; conditions: MTT, 48 h exposure; cited from earlier work
HepG2 cells [2] = test: Annexin V-FITC/PI apoptosis assay; format: cell-based, human; conditions: for apoptosis as extent of the level observed with SAHA / necrosis as extent of the level observed with SAHA: HepG2, relative to SAHA positive control; for cells in early apoptotic stage: lower right quadrant; for cells in late apoptotic stage: upper right quadrant
Protocol: An Annexin V-FITC assay was utilized to detect apoptosis in HepG2 cells. The cells were exposed to compounds 8b (3.4 µM) and 7c (7.3 µM) for 24 h, with untreated cells and cells treated with SAHA serving as negative and positive controls, respectively. After staining with propidium iodide (PI) and Annexin V-FITC, cell apoptosis was assessed via flow cytometry.

HepG2 cells [3] = test: Cell cycle analysis (PI, flow cytometry); conditions: HepG2, 24 h treatment, DNA content percentage
Protocol: Subsequently, the cells were harvested, fixed in 70% ethanol, and incubated for 12 h at 4 °C. After fixation, the cells were centrifuged, and the cell pellets were washed and resuspended in 0.5 mL of cold phosphate-buffered saline (PBS). The cells were then stained with 5 μg/mL of propidium iodide (PI; Sigma, Panama City, Panama), and the DNA content was determined using a BD FACSCalibur flow cytometer (Becton Dickinson, Franklin Lakes, NJ, USA). Data analysis was performed using CellQuest software, and 10,000 events were analyzed for each sample.

THLE-2 cell line = test: MTT cytotoxicity against normal cell line THLE-2; format: cell-based, human; conditions: normal liver epithelial cells
Protocol: These cells were cultured in Dulbecco’s Modified Eagle’s Medium (DMEM) from Invitrogen/Life Technologies, supplemented with 10% Hyclone fetal bovine serum, […], and 1% penicillin and streptomycin. For experimental purposes, the cells were seeded in 96-well tissue culture plates at an approximate density of 5 × 10^3 cells per well and were allowed to incubate overnight. The following day, the culture medium was replaced with fresh medium containing varying concentrations of the synthesized compounds to be tested for their toxicity. After 48 h of exposure, the medium was removed, and the cells were washed twice with phosphate-buffered saline (PBS). A new medium containing MTT solution was added, and the cells were further incubated for 4 h. The cellular viability and toxicity in response to each compound were determined using ELISA microplate reader- Bioline by measuring the absorbance at a wavelength of 450 nm.

[4] = HepG2, 8b 3.4 µM, 7c 7.3 µM, 24 h (Figure 2 legend: 72 h)

T2 sequence (P11388 whole entry): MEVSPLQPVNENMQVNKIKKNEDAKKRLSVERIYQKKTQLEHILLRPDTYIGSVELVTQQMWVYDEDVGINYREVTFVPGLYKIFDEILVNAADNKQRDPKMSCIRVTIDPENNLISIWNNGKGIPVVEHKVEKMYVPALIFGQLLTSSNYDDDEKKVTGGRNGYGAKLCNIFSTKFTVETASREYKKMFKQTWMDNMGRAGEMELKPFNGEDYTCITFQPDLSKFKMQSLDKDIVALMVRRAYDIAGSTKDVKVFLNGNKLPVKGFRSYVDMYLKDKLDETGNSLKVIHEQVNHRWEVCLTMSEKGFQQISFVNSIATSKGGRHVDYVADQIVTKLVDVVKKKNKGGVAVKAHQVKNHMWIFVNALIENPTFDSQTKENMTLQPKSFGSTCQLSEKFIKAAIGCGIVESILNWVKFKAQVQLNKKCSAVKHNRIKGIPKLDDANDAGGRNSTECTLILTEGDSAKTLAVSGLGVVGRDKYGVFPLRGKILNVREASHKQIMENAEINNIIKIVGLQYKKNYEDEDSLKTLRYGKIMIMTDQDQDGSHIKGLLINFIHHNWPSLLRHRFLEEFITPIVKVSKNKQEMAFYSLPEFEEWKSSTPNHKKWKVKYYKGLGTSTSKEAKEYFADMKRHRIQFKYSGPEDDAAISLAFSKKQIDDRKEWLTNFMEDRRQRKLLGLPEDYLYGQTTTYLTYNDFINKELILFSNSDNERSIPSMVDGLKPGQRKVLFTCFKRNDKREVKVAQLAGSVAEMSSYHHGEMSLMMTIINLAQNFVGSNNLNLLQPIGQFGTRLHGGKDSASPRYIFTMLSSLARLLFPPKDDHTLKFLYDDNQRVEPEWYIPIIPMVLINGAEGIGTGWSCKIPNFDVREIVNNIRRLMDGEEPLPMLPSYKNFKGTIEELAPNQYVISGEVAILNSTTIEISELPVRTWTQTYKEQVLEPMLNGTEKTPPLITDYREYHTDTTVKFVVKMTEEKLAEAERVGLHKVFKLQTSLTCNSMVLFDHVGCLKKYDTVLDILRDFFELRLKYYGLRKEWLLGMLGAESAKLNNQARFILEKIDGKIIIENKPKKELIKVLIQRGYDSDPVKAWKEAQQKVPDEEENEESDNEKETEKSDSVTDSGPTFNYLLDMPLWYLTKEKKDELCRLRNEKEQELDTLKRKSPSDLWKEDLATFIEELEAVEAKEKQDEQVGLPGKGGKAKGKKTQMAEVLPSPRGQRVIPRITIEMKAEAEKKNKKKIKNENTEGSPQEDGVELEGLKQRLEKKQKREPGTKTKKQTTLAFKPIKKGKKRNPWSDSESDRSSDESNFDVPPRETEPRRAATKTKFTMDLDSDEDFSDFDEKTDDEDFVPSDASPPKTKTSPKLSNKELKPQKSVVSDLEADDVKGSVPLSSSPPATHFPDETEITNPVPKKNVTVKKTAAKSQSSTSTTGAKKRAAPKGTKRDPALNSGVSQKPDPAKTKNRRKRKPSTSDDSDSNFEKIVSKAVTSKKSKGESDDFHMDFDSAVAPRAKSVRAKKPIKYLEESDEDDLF

Structure (SMILES)	IC50 (Topo-I)	IC50 (human Topo-II)	IC50 (HepG2 cells [1])	IC50 (HCT-116 cells)	IC50 (MCF-7 cells)	other results
N.N.[Cl][Pt][Cl] [Cisplatin, reference compound]	5.71 ± 0.31 µM	11.3 ± 0.62 µM	–	–	–	–
Nc1ccc(Nc2c3ccccc3nc3ccccc23)cc1 [Compound 5b]	–	–	8.3 ± 0.7 µM	8.93 ± 0.8 µM	5.88 ± 0.4 µM	–
S=C(Nc1ccccc1)Nc1ccc(Cc2ccc(Nc3c4ccccc4nc4ccccc34)cc2)cc1 [Compound 6a]	27.6 ± 1.5 µM	101 ± 5.51 µM	36.7 ± 3.5 µM	47.2 ± 3.9 µM	40.9 ± 3.8 µM	–
S=C(Nc1ccccc1)Nc1ccc(Nc2c3ccccc3nc3ccccc23)cc1 [Compound 6b]	4.17 ± 0.23 µM	24.5 ± 1.34 µM	18 ± 1.7 µM	13.1 ± 1.2 µM	16.5 ± 1.5 µM	–
COc1cccc2c1C(=O)c1c(O)c3c(c(O)c1C2=O)C[C@@](O)(C(=O)CO)C[C@@H]3O[C@H]1C[C@H](N)[C@H](O)[C@H](C)O1 [Doxorubicin, reference compound]	–	–	4.5 ± 0.2 µM	–	–	–
O=C(CCCCCCC(=O)Nc1ccccc1)NO [SAHA, reference compound]	–	–	–	–	–	%G2/M (HepG2 cells [3]): 6.59%; %Pre-G1 (HepG2 cells [3]): 34.12%; %S (HepG2 cells [3]): 46.39%; G0–G1 (HepG2 cells [3]): 47.02%; IC50 (THLE-2 cell line; 48 h): 33.6 ± 1.89 µM

Continued, in another order:

IC50 (Topo-I)	IC50 (human Topo-II)	Structure (SMILES)	IC50 (HepG2 cells [1])	IC50 (HCT-116 cells)	IC50 (MCF-7 cells)	other results
18.4 ± 1 µM	8.07 ± 0.44 µM	O=[N+]([O-])c1ccccc1S(=O)(=O)Nc1ccc(Cc2ccc(Nc3c4ccccc4nc4ccccc34)cc2)cc1 [Compound 7a]	62.3 ± 4.4 µM	72.2 ± 4.7 µM	88.4 ± 5.1 µM	melting point: 172 °C
82.5 ± 4.49 µM	234 ± 12.7 µM	Cc1ccc(S(=O)(=O)Nc2ccc(Cc3ccc(Nc4c5ccccc5nc5ccccc45)cc3)cc2)cc1 [Compound 7b]	93.6 ± 5.3 µM	88.5 ± 4.8 µM	73.8 ± 4.5 µM	melting point: > 250 °C
16.6 ± 0.9 µM	7.33 ± 0.4 µM	CC(=O)Nc1ccc(S(=O)(=O)Nc2ccc(Cc3ccc(Nc4c5ccccc5nc5ccccc45)cc3)cc2)cc1 [Compound 7c]	31.1 ± 3.1 µM	40.6 ± 3.7 µM	29.1 ± 2.7 µM	apoptosis as extent of the level observed with SAHA (HepG2 cells [2]): 55%; necrosis as extent of the level observed with SAHA (HepG2 cells [2]): 88%; cells in early apoptotic stage (HepG2 cells [2]; [4]): 1.6%; cells in necrotic stage (HepG2 cells [2]; HepG2, 8b 3.4 µM, 7c 7.3 µM, 24 h (Figure 2 legend: 72 h), upper left quadrant): 5.9%; cells in late apoptotic stage (HepG2 cells [2]; [4]): 12%; %G2/M (HepG2 cells [3]): 28.12%; %Pre-G1 (HepG2 cells [3]): 19.61%; %S (HepG2 cells [3]): 29.27%; G0–G1 (HepG2 cells [3]): 42.61%; IC50 (THLE-2 cell line; Homo sapiens, THLE-2, 48 h): 55.5 µM; IC50 (THLE-2 cell line; 48 h): 104 ± 5.86 µM
7.67 ± 0.42 µM	21.6 ± 1.18 µM	O=S(=O)(Nc1ccc(Cc2ccc(Nc3c4ccccc4nc4ccccc34)cc2)cc1)c1ccc(N=Nc2ccccc2)cc1 [Compound 7d]	45.5 ± 3.9 µM	58 ± 4.3 µM	33.6 ± 3.3 µM	–
42.2 ± 2.29 µM	38.7 ± 2.1 µM	CC(C)c1cc(C(C)C)c(S(=O)(=O)Nc2ccc(Cc3ccc(Nc4c5ccccc5nc5ccccc45)cc3)cc2)c(C(C)C)c1 [Compound 7e]	55.4 ± 4.2 µM	66.7 ± 4.5 µM	50.8 ± 4 µM	–
15 ± 0.81 µM	10.9 ± 0.59 µM	O=[N+]([O-])c1ccccc1S(=O)(=O)Nc1ccc(Nc2c3ccccc3nc3ccccc23)cc1 [Compound 8a]	20.6 ± 1.8 µM	15.2 ± 1.6 µM	10.5 ± 1 µM	–
3.41 ± 0.19 µM	16.2 ± 0.88 µM	Cc1ccc(S(=O)(=O)Nc2ccc(Nc3c4ccccc4nc4ccccc34)cc2)cc1 [Compound 8b]	14.5 ± 1.4 µM	9.39 ± 0.9 µM	8.83 ± 0.9 µM	apoptosis as extent of the level observed with SAHA (HepG2 cells [2]): 79%; necrosis as extent of the level observed with SAHA (HepG2 cells [2]): 46%; cells in early apoptotic stage (HepG2 cells [2]; [4]): 3.5%; cells in late apoptotic stage (HepG2 cells [2]; [4]): 19.6%; %G2/M (HepG2 cells [3]): 9.66%; %Pre-G1 (HepG2 cells [3]): 26.95%; %S (HepG2 cells [3]): 39.15%; G0–G1 (HepG2 cells [3]): 51.19%; IC50 (THLE-2 cell line; Homo sapiens, THLE-2, 48 h): 104 µM; IC50 (THLE-2 cell line; 48 h): 55.5 ± 3.13 µM
21.4 ± 1.17 µM	22 ± 1.2 µM	O=S(=O)(Nc1ccc(Nc2c3ccccc3nc3ccccc23)cc1)c1ccc(N=Nc2ccccc2)cc1 [Compound 8c]	22.4 ± 2 µM	35.7 ± 3.4 µM	25.5 ± 2.4 µM	–
11.9 ± 0.65 µM	32.7 ± 1.78 µM	CC(C)c1cc(C(C)C)c(S(=O)(=O)Nc2ccc(Nc3c4ccccc4nc4ccccc34)cc2)c(C(C)C)c1 [Compound 8d]	23.1 ± 2.2 µM	29.9 ± 2.8 µM	19.7 ± 1.7 µM	–
